For 23 compounds, IC50 results are on record in patent US9890153B2, “Substituted 1H-pyrrolo [2, 3-b] pyridine and 1H-pyrazolo [3, 4-b] pyridine derivatives as salt inducible kinase 2 (SIK2) inhibitors” (Arrien Pharmaceuticals LLC, priority 2012, dated 2018).

Molecules are shown by their SMILES.

Holding throughout (assay type): biochemical
In experiment [1] the target is SIK2 (QIK) (SEQ ID NO: 11) (Homo sapiens, UniProt Q9H0K1). The experiment in a line: SIK2 kinase assay (radiometric, 10 μM ATP). The following applies: read-out: SIK2 (QIK) (SEQ ID NO: 11) kinase inhibition result. The protocol:
Procedure: Enzyme was incubated with substrate peptide in reaction buffer in the presence and absence of test compounds or Staurosporine. All additions were done on ice, followed by the addition of ATP mix. Wells were uniformly mixed using an Eppendorff plate shaker and incubated at 30° C. for 20 min, and stopped by the addition of 5 μL of 3% phosphoric acid. Volume was increased to 100 μL by adding 0.8% phosphoric acid which was then transferred to PC filter mats (Millipore), pre-equilibrated with 70% ethanol and water. Plates were washed thrice with 100 μL 0.8% phosphoric acid and dried for an hour at 60° C.

The target in another experiment is T1, SIK1 (SEQ ID NO: 10) (Homo sapiens, UniProt P57059).
T1 construct: Reaction Biology Corporation (assay service, HotSpot panel)
Put plainly: Protein kinase assay, SIK1. The following applies: read-out: SIK1 (SEQ ID NO: 10) kinase inhibition result. The protocol:
(§1) Briefly, specific kinase/substrate pairs along with required cofactors were prepared in reaction buffer; 20 mM Hepes (pH 7.5), 10 mMmgCl2, 1 mM EGTA, 0.02% Brij35, 0.02 mg/ml BSA, 0.1 mM Na3VO4, 2 mM DTT, 1% DMSO. Compounds were delivered into the reaction, followed ˜20 min later by addition of a mixture of ATP (Sigma) and 33P ATP (PerkinElmer) to a final concentration of 10 μM. […] IC50 values and curve fits were obtained using Prism (GraphPad Software). Kinome tree representations were prepared using Kinome Mapper (http://www.reactionbiology.com/apps/kinome/mapper/LaunchKinome.htm).

For experiment [2], the target named is T2, SIK3 (QSK) (SEQ ID NO: 24) (Homo sapiens, UniProt Q9Y2K2).
T2 construct: Reaction Biology Corporation (assay service, HotSpot panel)
The experiment in a line: Protein kinase assay, SIK3. The following applies: read-out: SIK3 (QSK) (SEQ ID NO: 24) kinase inhibition result. The protocol:
as §1

T2 sequence (Q9Y2K2 whole entry): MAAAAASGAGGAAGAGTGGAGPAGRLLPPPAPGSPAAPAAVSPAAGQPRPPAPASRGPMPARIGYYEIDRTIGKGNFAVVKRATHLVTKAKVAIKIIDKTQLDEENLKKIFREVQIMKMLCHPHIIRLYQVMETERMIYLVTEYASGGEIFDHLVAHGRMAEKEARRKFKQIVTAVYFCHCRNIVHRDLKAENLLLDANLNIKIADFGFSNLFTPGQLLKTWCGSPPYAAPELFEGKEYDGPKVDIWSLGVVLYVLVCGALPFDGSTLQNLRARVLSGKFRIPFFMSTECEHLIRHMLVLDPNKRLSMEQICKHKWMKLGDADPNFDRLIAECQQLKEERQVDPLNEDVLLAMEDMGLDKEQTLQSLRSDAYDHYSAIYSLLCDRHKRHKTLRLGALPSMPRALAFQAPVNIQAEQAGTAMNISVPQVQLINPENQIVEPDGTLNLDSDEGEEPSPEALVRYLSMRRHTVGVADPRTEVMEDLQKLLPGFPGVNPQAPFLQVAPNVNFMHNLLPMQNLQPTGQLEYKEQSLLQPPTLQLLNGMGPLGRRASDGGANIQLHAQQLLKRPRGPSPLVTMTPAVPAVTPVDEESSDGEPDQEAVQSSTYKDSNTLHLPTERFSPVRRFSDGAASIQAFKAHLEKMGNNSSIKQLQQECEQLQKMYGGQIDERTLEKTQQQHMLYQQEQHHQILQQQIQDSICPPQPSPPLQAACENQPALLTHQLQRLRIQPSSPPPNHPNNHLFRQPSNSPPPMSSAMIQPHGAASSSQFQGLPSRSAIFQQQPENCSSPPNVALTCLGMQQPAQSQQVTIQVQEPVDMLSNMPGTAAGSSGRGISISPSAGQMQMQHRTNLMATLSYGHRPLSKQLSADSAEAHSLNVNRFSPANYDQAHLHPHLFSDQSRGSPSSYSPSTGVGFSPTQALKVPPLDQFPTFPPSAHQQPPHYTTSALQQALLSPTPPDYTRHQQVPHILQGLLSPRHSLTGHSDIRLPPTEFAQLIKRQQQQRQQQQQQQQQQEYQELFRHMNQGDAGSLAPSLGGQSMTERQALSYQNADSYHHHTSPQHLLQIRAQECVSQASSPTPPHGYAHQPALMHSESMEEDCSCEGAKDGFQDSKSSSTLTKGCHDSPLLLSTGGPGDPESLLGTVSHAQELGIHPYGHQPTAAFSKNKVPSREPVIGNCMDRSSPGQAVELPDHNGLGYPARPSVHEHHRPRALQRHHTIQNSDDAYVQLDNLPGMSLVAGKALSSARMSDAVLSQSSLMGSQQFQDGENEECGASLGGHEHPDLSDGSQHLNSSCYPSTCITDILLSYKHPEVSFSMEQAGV
T1 sequence (P57059 whole entry): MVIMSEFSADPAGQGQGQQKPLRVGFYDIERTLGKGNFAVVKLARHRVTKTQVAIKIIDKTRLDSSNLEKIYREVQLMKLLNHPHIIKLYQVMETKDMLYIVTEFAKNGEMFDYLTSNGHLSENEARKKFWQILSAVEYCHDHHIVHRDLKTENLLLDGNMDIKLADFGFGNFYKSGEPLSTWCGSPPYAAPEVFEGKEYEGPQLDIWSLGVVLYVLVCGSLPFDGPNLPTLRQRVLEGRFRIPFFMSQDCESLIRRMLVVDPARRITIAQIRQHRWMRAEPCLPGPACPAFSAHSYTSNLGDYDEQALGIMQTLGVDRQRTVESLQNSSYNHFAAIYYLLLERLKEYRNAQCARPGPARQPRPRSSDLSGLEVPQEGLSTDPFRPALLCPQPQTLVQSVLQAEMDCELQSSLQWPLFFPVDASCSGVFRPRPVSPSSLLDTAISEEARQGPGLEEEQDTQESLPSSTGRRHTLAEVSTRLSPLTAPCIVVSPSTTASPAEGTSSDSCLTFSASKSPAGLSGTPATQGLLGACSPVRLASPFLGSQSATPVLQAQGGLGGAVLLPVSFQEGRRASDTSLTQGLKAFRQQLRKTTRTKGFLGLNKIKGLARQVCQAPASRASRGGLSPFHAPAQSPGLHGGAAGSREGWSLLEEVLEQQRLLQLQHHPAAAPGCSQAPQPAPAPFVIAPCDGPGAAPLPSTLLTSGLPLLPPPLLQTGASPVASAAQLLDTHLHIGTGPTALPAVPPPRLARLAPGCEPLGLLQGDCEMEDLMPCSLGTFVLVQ
SIK2 (QIK) (SEQ ID NO: 11), sequence (Q9H0K1 whole entry): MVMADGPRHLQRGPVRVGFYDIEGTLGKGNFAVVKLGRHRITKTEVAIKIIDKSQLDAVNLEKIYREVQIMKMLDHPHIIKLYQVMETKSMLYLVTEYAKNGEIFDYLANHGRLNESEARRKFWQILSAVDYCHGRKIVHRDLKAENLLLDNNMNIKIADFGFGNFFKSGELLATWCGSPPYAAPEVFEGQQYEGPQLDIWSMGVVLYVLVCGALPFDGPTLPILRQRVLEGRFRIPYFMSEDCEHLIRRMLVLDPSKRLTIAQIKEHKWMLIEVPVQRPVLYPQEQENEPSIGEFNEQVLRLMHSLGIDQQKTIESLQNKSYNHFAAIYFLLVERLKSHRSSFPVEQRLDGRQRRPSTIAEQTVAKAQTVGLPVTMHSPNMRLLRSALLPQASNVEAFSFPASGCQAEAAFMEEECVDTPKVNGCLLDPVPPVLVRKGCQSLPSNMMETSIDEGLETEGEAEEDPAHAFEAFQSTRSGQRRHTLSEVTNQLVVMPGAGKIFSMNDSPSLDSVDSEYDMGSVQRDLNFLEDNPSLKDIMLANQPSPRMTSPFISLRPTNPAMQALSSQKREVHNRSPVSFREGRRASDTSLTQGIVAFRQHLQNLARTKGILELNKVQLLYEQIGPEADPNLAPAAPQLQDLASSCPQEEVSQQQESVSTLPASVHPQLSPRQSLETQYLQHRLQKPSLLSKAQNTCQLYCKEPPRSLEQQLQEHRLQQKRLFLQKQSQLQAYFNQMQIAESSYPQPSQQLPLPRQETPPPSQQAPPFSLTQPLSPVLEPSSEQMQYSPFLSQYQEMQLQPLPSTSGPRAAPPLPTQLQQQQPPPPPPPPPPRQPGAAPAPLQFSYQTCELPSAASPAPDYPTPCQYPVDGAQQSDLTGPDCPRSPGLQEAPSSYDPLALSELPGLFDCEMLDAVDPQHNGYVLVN

In the case of `Fc1ccc(-c2n[nH]c3nccc(-c4ccsc4)c23)c(F)c1` [Example 2, 3-(2,4-difluorophenyl)-4-(thiophen-3-yl)-1H-pyrazolo[3,4-b]pyridine], the IC50 in experiment [1] was above 100 nM; at SIK1 (SEQ ID NO: 10), above 1000 nM; in experiment [2], above 1000 nM.

For `CCOc1ccccc1-c1n[nH]c2nccc(-c3ccsc3)c12` [Example 5, 3-(2-ethoxyphenyl)-4-(thiophen-3-yl)-1H-pyrazolo[3,4-b]pyridine], the IC50 is above 100 nM in experiment [1], above 1000 nM at SIK1 (SEQ ID NO: 10) and below 100 nM in experiment [2].

As for `COc1cc(Cl)ccc1-c1n[nH]c2nccc(-c3ccsc3)c12` [Example 6, 3-(4-chloro-2-methoxyphenyl)-4-(thiophen-3-yl)-1H-pyrazolo[3,4-b]pyridine], the IC50 in experiment [1] is above 100 nM; at SIK1 (SEQ ID NO: 10), above 100 nM; in experiment [2] it was above 1000 nM.

For `COc1ccccc1-c1c[nH]c2nccc(-c3ccsc3)c12` [Example 17, 3-(2-methoxyphenyl)-4-(thiophen-3-yl)-1H-pyrrolo[2,3-b]pyridine], the IC50 (in experiment [1]; on SIK1 (SEQ ID NO: 10); in experiment [2]) was above 100 nM each time.

With `CCN(CC)S(=O)(=O)c1ccccc1-c1c[nH]c2nccc(-c3ccsc3)c12` [Example 95, N,N-diethyl-2-(4-(thiophen-3-yl)-1H-pyrrolo[2,3-b]pyridin-3-yl)benzenesulfonamide], the IC50 (in experiment [1]; on SIK1 (SEQ ID NO: 10); in experiment [2]) was above 1000 nM in each case.

Take `O=S(=O)(c1ccc(-c2c[nH]c3nccc(-c4ccsc4)c23)cc1)N1CCC1` [Example 96, 3-(4-(azetidin-1-ylsulfonyl)phenyl)-4-(thiophen-3-yl)-1H-pyrrolo[2,3-b]pyridine]: the IC50 (in experiment [1]; at SIK1 (SEQ ID NO: 10); in experiment [2]) was above 1000 nM in each case.

Regarding `O=S(=O)(c1cccc(-c2c[nH]c3nccc(-c4ccsc4)c23)c1)N1CCCC1` [Example 97, 3-(3-(pyrrolidin-1-ylsulfonyl)phenyl)-4-(thiophen-3-yl)-1H-pyrrolo[2,3-b]pyridine], the IC50 (in experiment [1]; on SIK1 (SEQ ID NO: 10); in experiment [2]) was above 1000 nM in each case.

As to `O=S(=O)(c1ccc(-c2c[nH]c3nccc(-c4ccsc4)c23)cc1)N1CCCC1` [Example 98, 3-(4-(pyrrolidin-1-ylsulfonyl)phenyl)-4-(thiophen-3-yl)-1H-pyrrolo[2,3-b]pyridine], the IC50 (in experiment [1]; on SIK1 (SEQ ID NO: 10); in experiment [2]) was above 1000 nM throughout.

As to `COc1ccccc1-c1c[nH]c2ncc(-c3ccc(C)o3)cc12` [Example 115, 3-(2-methoxyphenyl)-5-(5-methylfuran-2-yl)-1H-pyrrolo[2,3-b]pyridine], the values for the IC50 (in experiment [1]; at SIK1 (SEQ ID NO: 10); in experiment [2]) were below 100 nM, above 100 nM and above 1000 nM, respectively.

In the case of `Cc1ccc(-c2ccnc3[nH]cc(-c4cccc(F)c4Cl)c23)o1` [Example 116, 3-(2-chloro-3-fluorophenyl)-4-(5-methylfuran-2-yl)-1H-pyrrolo[2,3-b]pyridine], the IC50 is above 100 nM in experiment [1], above 1000 nM at SIK1 (SEQ ID NO: 10) and above 1000 nM in experiment [2].

Turning to `COc1c(F)cccc1-c1c[nH]c2nccc(-c3ccsc3)c12` [Example 120, 3-(3-fluoro-2-methoxyphenyl)-4-(thiophen-3-yl)-1H-pyrrolo[2,3-b]pyridine], the IC50 in experiment [1] was below 100 nM; at SIK1 (SEQ ID NO: 10), above 100 nM; in experiment [2], above 100 nM.

On to `Oc1ccccc1-c1c[nH]c2ncc(-c3ccsc3)cc12` [Example 123, 2-(5-(thiophen-3-yl)-1H-pyrrolo[2,3-b]pyridin-3-yl)phenol], for which the IC50 (in experiment [1]; on SIK1 (SEQ ID NO: 10); in experiment [2]) was above 100 nM each time.

On to `Oc1c(F)cc(F)cc1-c1c[nH]c2ncc(-c3ccsc3)cc12` [Example 124, 2,4-difluoro-6-(5-(thiophen-3-yl)-1H-pyrrolo[2,3-b]pyridin-3-yl)phenol], for which the IC50 (in experiment [1]; on SIK1 (SEQ ID NO: 10); in experiment [2]) was above 100 nM in each case.

Turning to `Cc1ccc(-c2cnc3[nH]cc(-c4cccc(F)c4O)c3c2)o1` [Example 128, 2-fluoro-6-(5-(5-methylfuran-2-yl)-1H-pyrrolo[2,3-b]pyridin-3-yl)phenol], the IC50 in experiment [1] was below 100 nM; on SIK1 (SEQ ID NO: 10), above 100 nM; in experiment [2], above 100 nM.

For `Fc1cccc(-c2c[nH]c3ncc(-c4ccc(CN5CCOCC5)s4)cc23)c1Cl` [Example 133], the IC50 in experiment [1] was below 100 nM; at SIK1 (SEQ ID NO: 10), above 1000 nM; in experiment [2], above 100 nM.

Take `Cc1nc(Nc2cnc3[nH]cc(-c4cccc(F)c4Cl)c3c2)sc1Cl` [Example 134, 5-chloro-N-(3-(2-chloro-3-fluorophenyl)-1H-pyrrolo[2,3-b]pyridin-5-yl)-4-methylthiazol-2-amine]: the IC50 in experiment [1] was above 100 nM; at SIK1 (SEQ ID NO: 10), above 100 nM; in experiment [2], above 1000 nM.

For the compound `CN(C)S(=O)(=O)c1cccc(-c2cnc3[nH]cc(-c4cccc(F)c4Cl)c3c2)c1` [Example 135, 3-(3-(2-chloro-3-fluorophenyl)-1H-pyrrolo[2,3-b]pyridin-5-yl)-N,N-dimethylbenzenesulfonamide], the IC50 in experiment [1] was below 100 nM; at SIK1 (SEQ ID NO: 10), above 100 nM; in experiment [2], above 100 nM.

As for `FC1(F)CN(c2c[nH]c3ncc(-c4ccsc4)cc23)C1` [Example 136, 3-(3,3-difluoroazetidin-1-yl)-5-(thiophen-3-yl)-1H-pyrrolo[2,3-b]pyridine], the IC50 was below 100 nM in experiment [1], above 100 nM at SIK1 (SEQ ID NO: 10) and above 100 nM in experiment [2].

For the compound `Fc1c(-c2c[nH]c3ncc(-c4ccsc4)cc23)ccnc1Cl` [Example 141, 3-(2-chloro-3-fluoropyridin-4-yl)-5-(thiophen-3-yl)-1H-pyrrolo[2,3-b]pyridine], the IC50 was below 100 nM in experiment [1], above 1000 nM at SIK1 (SEQ ID NO: 10) and above 100 nM in experiment [2].

`COc1c(F)cccc1-c1c[nH]c2ncc(-c3ccc(CN4CCOCC4)s3)cc12` [Example 142, 4-((5-(3-(3-fluoro-2-methoxyphenyl)-1H-pyrrolo[2,3-b]pyridin-5-yl)thiophen-2-yl)methyl)morpholine]: the values for the IC50 (in experiment [1]; at SIK1 (SEQ ID NO: 10); in experiment [2]) were below 100 nM, above 1000 nM and below 100 nM, respectively.

Consider `COc1c(F)cccc1-c1c[nH]c2ncc(-c3ccc(C)o3)cc12` [Example 168, 3-(3-fluoro-2-methoxyphenyl)-5-(5-methylfuran-2-yl)-1H-pyrrolo[2,3-b]pyridine], for which the values for the IC50 (in experiment [1]; on SIK1 (SEQ ID NO: 10); in experiment [2]) were below 100 nM, above 1000 nM and above 1000 nM, respectively.

`COc1c(F)cccc1-c1c[nH]c2ncc(-c3ccc(CN4CCCC4)s3)cc12` [Example 174, 3-(3-fluoro-2-methoxyphenyl)-5-(5-(pyrrolidin-1-ylmethyl)thiophen-2-yl)-1H-pyrrolo[2,3-b]pyridine]: the figures for the IC50 (in experiment [1]; on SIK1 (SEQ ID NO: 10); in experiment [2]) were below 100 nM, above 1000 nM and above 100 nM, respectively.

In the case of `COc1c(F)cccc1-c1c[nH]c2ncc(-c3ccc(CN4CCCCC4)s3)cc12` [Example 175, 3-(3-fluoro-2-methoxyphenyl)-5-(5-(piperidin-1-ylmethyl)thiophen-2-yl)-1H-pyrrolo[2,3-b]pyridine], the IC50 in experiment [1] was below 100 nM; at SIK1 (SEQ ID NO: 10), above 1000 nM; in experiment [2] it was above 100 nM.
